The values below come from US8765786B2, “1-substituted indazole derivative” (Dainippon Sumitomo Pharma Co., Ltd., priority 2012, dated 2014).

The first assay deals with T1, human α7 nAChR (Homo sapiens, UniProt P36544).
T1 construct: expressed in transfected cells; host or cells: GH4C1 cells derived from rat pituitary (ATCC CCL-82.2)
T1 sequence (P36544 23-502): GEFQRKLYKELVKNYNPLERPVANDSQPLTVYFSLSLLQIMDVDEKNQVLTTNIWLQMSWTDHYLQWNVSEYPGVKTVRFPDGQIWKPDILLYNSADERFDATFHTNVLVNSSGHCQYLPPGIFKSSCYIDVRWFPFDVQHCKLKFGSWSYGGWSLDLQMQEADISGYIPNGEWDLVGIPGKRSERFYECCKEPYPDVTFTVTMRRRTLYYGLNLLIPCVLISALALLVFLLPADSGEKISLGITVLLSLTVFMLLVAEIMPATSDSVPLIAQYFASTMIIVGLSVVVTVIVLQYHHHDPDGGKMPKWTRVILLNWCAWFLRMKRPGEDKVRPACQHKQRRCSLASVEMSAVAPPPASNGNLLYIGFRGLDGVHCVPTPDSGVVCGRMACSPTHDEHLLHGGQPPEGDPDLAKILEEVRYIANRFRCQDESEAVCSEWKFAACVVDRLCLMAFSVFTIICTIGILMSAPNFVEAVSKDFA
Put plainly: Evaluation of PAM activity with human α7 nACh receptor stably expressing cells (aequorin luminescence, FDSS7000). It is filed as cell-based. The settings on record: result in words; ratio of RLU (Max-Min) to control wells, ACh EC20. The text has this: Human α7 nAChR stably expressing cells were generated and cultured. In detail, GH4C1 cells derived from rat pituitary (cat#CCL-82.2, ATCC, USA) were used as a host cell. PcDNA3.1Zeo vector containing a nucleotide sequence encoding a protein GenBank BAC81731 and pcDNA3.1 vector containing human α7 nAChR gene (cat#V790-20, invitrogen, Carlsbad, Calif., USA) were transfected to the cells to give aequorins and human α7 nAChR stably expressing cells respectively. The aequorins and human α7 nAChR stably expressing cells were screened with Zeocin (cat#R25001, invitrogen, Carlsbad, Calif., USA) and Geneticin (cat #10131-027, invitrogen, Carlsbad, Calif., USA) respectively.
The cells were cultured in F-10 Nutrient Mixture (Ham) medium (cat #11550-043, invitrogen, Carlsbad, Calif., USA) containing 2.5% fetal bovine serum (cat #2917354, ICN Biomedicals, Inc, USA), 15% inactivated horse serum (cat #26050-088, invitrogen, Carlsbad, Calif., USA), 1 μg/mL Geneticin, and 5 μg/mL Puromycin (cat #14861-84, invitrogen, Carlsbad, Calif., USA), in a Collagen Type 1-coated dish (cat #4030-010, iwaki, Tokyo, Japan). During the culture, the medium was replaced with fresh medium in every 2 to 3 days, and the cells were treated with TrypLE Express (cat #45604-021, invitrogen, Carlsbad, Calif., USA) to collect them in every 7 days. Thus, the cells were subcultured.
7 Days after subculturing, the cells were treated with TrypLE Express to collect them when they were about 80% confluent. The cells were suspended in a reaction medium containing Hanks (cat #14065-056, invitrogen, Carlsbad, Calif., USA)/20 mmol/L Hepes (cat #15630-080, invitrogen, Carlsbad, Calif., USA), Buffer (pH 7.4), F-10 Nutrient Mixture (Ham), and 0.1 mg/mL Geneticin, and the suspension was seeded in a 384-well plate (cat #781090, Greiner, Germany) at 20000 cells/25 μL per well.
On the next day after seeding, Viviren (cat#E649X, Promega, Madison, Wis., USA) was added to the medium so that the final concentration could be 4 μmol/L (15 μL/well). The plates were centrifuged and then placed in the dark for 4 hours at room temperature.
Each of the test compounds was dissolved in DMSO to prepare each test sample at a concentration of 1000-fold the final concentration. To the solution was added Hanks/20 mM HEPES/0.2% BSA (cat#A3803, Sigma, St. Louis, Mo., USA), and the concentration was adjusted to 6-fold the final concentration.
FDSS7000 (Hamamatsu Photonics) was used to detect the luminescence signal evoked by α7 nAChR stimulation. The cells and a luminescent substrate were put on a plate, and the test sample was added thereto. […] After the addition of ACh, the luminescence signal (the central wavelength: 465 nm) was measured for 138 seconds to calculate RLU (Max-Min). The ratio of the RLU (Max-Min) of the test-compound-containing wells to that of the control wells was defined as PAM activity.
As to `COCC1CCC(NC(=O)N2CCC(n3ncc4cc(C)ccc43)CC2)CC1` (stereo not shown) [Example 220], the “PAM activity for α7 nAChR” value was “stronger PAM activity than others”.
Still for that read-out and setting: next, `CCOc1ccc2c(cnn2C2CCN(C(=O)NC3CCCC3)CC2)c1` [Example 17]: “stronger PAM activity than others”; `Cc1ccc2c(cnn2C2CCN(C(=O)NC3CCCCC3)CC2)c1` [Example 8, N-cyclohexyl-4-(5-methyl-1H-indazol-1-yl)piperidine-1-carboxamide]: “stronger PAM activity than others”.

The assay is the same for the next values; noted with them: test compound 10 μmol/L; ACh added at EC20; ratio of RLU (Max-Min) of test wells to control wells.
In the case of `COCCc1ccc2c(cnn2C2CCN(C(=O)NC3CCC(F)(F)CC3)CC2)c1` [Example 239], the “α7PAM (%) @ 10 μmol/L” value was 485%.
Consider `Cc1ccc2c(cnn2C2CCN(C(=O)NC3CC(F)(F)C3)CC2)c1` [Example 218], for which the “α7PAM (%) @ 10 μmol/L” value was 648%.
On the same count and under the same terms, next, `COCC1CCC(NC(=O)N2CCC(n3ncc4cc(C)ccc43)CC2)CC1` (stereo not shown) [Example 220]: 2160%; `O=C(NC1CCC(F)(F)CC1)N1CCC(n2ncc3cc(C(F)(F)F)ccc32)CC1` [Example 164]: 979%; `COc1nn(C2CCN(C(=O)NC3CCC(F)(F)CC3)CC2)c2ccc(C)cc12` [Example 270]: 364%.
On the same count and under the same terms, next, `COCCCc1ccc2c(cnn2C2CCN(C(=O)NC3CCC(F)(F)CC3)CC2)c1` [Example 26]: 521%; `CC(C)Oc1ccc2c(cnn2C2CCN(C(=O)NC3CCCC3)CC2)c1` [Example 49]: 429%.
On the same count and under the same terms, next, `CCOc1nn(C2CCN(C(=O)NC3CCCCC3)CC2)c2ccc(CC)cc12` [Example 60]: 846%; `COc1ccc2c(cnn2C2CCN(C(=O)NC3CCC(F)(F)CC3)CC2)c1C1CC1` [Example 280]: 299%.
Turning to `CCOc1nn(C2CCN(C(=O)NC3CCOCC3)CC2)c2ccc(OC(F)(F)F)cc12` [Example 265], the “α7PAM (%) @ 10 μmol/L” value was found to be 181%.
On the same count and under the same terms, next, `O=C(NC1CCC1)N1CCC(n2ncc3cc(C4CC4)ccc32)CC1` [Example 185]: 494%; `COCc1ccc2c(cnn2C2CCN(C(=O)NC3CCC(F)(F)CC3)CC2)c1` [Example 54]: 657%; `COC1CCC(NC(=O)N2CCC(n3ncc4cc(C)ccc43)CC2)CC1` (stereo not shown) [Example 91]: 217%.
Still for that read-out and setting: as for `CCc1nn(C2CCN(C(=O)NC3CCC(F)(F)CC3)CC2)c2ccc(OC)cc12` [Example 241], the figure is 358%.
For `COCc1nn(C2CCN(C(=O)NC3CCCC3)CC2)c2ccc(C)cc12` [Example 67], the “α7PAM (%) @ 10 μmol/L” value was 436%.
In the case of `COc1ccc2c(cnn2C2CCN(C(=O)NC3CCCCC3(F)F)CC2)c1` (stereo not shown) [Example 86], the “α7PAM (%) @ 10 μmol/L” value is 1481%.
Same read-out and setting: next, `CCc1ccc2c(cnn2C2CCN(C(=O)NC3CCOC(C)(C)C3)CC2)c1` (stereo not shown) [Example 21]: 523%; `COc1c(C(F)(F)F)ccc2c1cnn2C1CCN(C(=O)NC2CCC(OC)CC2)CC1` (stereo not shown) [Example 317]: 360%; `CCc1cccc2c1cnn2C1CCN(C(=O)C2CCC(F)(F)CC2)CC1` [Example 139]: 1018%.
Still for that read-out and setting: as for `COCc1c(C2CC2)ccc2c1cnn2C1CCN(C(=O)NC2CCC(F)(F)CC2)CC1` [Example 215], the figure is 851%; as for `COC1CCC(NC(=O)N2CCC(n3ncc4cc(F)ccc43)CC2)CC1` (stereo not shown) [Example 29], 206%.
Same read-out and setting: next, `CCOc1ccc2c(cnn2C2CCN(C(=O)NC3CCCC3)CC2)c1` [Example 17]: 2469%; `COCC1CCC(NC(=O)N2CCC(n3ncc4cc(C5CC5)ccc43)CC2)CC1` (stereo not shown) [Example 221]: 1942%.
`COc1ccc2c(cnn2C2CCN(C(=O)NC3CCC(F)(F)CC3)CC2)c1C` [Example 278]: the “α7PAM (%) @ 10 μmol/L” value was 861%.
Still for that read-out and setting: as for `CCc1ccc2c(cnn2[C@H]2CC[C@@H](NC(=O)C3CCOCC3)CC2)c1` [Example 120], the figure is 654%.
Same read-out and setting: as for `COCc1cccc2c1cnn2C1CCN(C(=O)NC2CCCCC2)CC1` [Example 165], the figure is 442%; as for `CCc1nn(C2CCN(C(=O)NC3CCOCC3)CC2)c2ccc(OC)cc12` [Example 244], 324%; as for `COC1CCC(NC(=O)N2CCC(n3ncc4c(C)cccc43)CC2)CC1` (stereo not shown) [Example 94], 154%.
The same measure, in the same setting: next, `Cc1ccc2c(cnn2C2CCN(C(=O)C3CCC(F)(F)CC3)CC2)c1` [Example 133]: 568%; `Cc1ccc2c(cnn2C2CCN(C(=O)N[C@H]3CC[C@H](OC(F)F)CC3)CC2)c1` [Example 154]: 811%.
As to `COc1nn(C2CCN(C(=O)NC3CCOCC3)CC2)c2ccc(C(F)(F)F)cc12` [Example 266], the “α7PAM (%) @ 10 μmol/L” value turned out to be 448%.
The same measure, in the same setting: next, `CCc1ccc2c(c1)c(OC(F)F)nn2C1CCN(C(=O)NC2CCOCC2)CC1` [Example 209]: 266%.
For the compound `COCc1nn(C2CCN(C(=O)NC3CCC(OC)CC3)CC2)c2ccc(C)cc12` (stereo not shown) [Example 69], the “α7PAM (%) @ 10 μmol/L” value was 242%.
The same measure, in the same setting: next, `N#Cc1ccc2c(cnn2C2CCN(C(=O)NC3CCC(F)(F)CC3)CC2)c1` [Example 198]: 268%; `CCc1cnc2c(cnn2C2CCN(C(=O)NC3CCC(F)(F)CC3)CC2)c1` [Example 99]: 755%; `CCOc1cccc2c1cnn2C1CCN(C(=O)NC2CCCCC2)CC1` [Example 191]: 493%.
With `CCc1ccc2c(cnn2C2CCN(C(=O)c3ccc(F)cn3)CC2)c1` [Example 118], the “α7PAM (%) @ 10 μmol/L” value amounted to 188%.
With `O=C(C1CCOCC1)N1CCC(n2ncc3cc(C4CC4)ccc32)CC1` [Example 140], the “α7PAM (%) @ 10 μmol/L” value is 265%.
As to `O=C(NC1CCCCC1)N1CCC(n2ncc3cc(C4CC4)ccc32)CC1` [Example 199], the “α7PAM (%) @ 10 μmol/L” value turned out to be 1497%.
The same measure, in the same setting: next, `CCO[C@H]1CC[C@H](NC(=O)N2CCC(n3ncc4c(C5CC5)cccc43)CC2)CC1` [Example 44]: 322%; `COc1c(Br)ccc2c1cnn2C1CCN(C(=O)N[C@H]2CC[C@H](OC)CC2)CC1` [Example 285]: 293%; `[2H]C([2H])([2H])Oc1ccc2c(cnn2C2CCN(C(=O)NC3CCCCC3)CC2)c1` [Example 324]: 1352%.
On the same count and under the same terms, next, `CCOc1nn(C2CCN(C(=O)NC3CCCC3)CC2)c2ccc(CC)cc12` [Example 56]: 676%.
Same read-out and setting: next, `COCC(C)c1ccc2c(cnn2C2CCN(C(=O)NC3CCC(F)(F)CC3)CC2)c1` (stereo not shown) [Example 252]: 364%; `CCOc1ccc2c(cnn2C2CCN(C(=O)NC3CCC(F)(F)CC3)CC2)c1C` [Example 281]: 197%.

Staying with this assay, now noted: test compound 10 μmol/L; ACh added at EC20; ratio of RLU (Max-Min) of test wells to control wells; read-out: α7PAM (%) @ 10 μmol/L.
Turning to `[2H]C([2H])([2H])c1ccc2c(cnn2C2CCN(C(=O)N[C@H]3CC[C@H](OC)CC3)CC2)c1` [Example 144, N-(trans-4-methoxycyclohexyl)-4-[5-(^2H3)methyl-1H-indazol-1-yl]piperidine-1-carboxamide], the activity at 10 µM was determined as 637%.
The same measure, in the same setting: next, `Cc1ccc2c(cnn2C2CCN(C(=O)N[C@@H]3CCCC3(F)F)CC2)c1` [Example 81, (R) —N-(2,2-difluorocyclopentyl)-4-(5-methyl-1H-indazol-1-yl)piperidine-1-carboxamide]: 819%; `CCOc1c(C)ccc2c1cnn2C1CCN(C(=O)N[C@H]2CC[C@H](OC)CC2)CC1` [Example 145, 4-(4-ethoxy-5-methyl-1H-indazol-1-yl)-N-(trans-4-methoxycyclohexyl)piperidine-1-carboxamide]: 804%; `O=C(NC1CCCC1)N1CCC(n2ncc3cc(Cl)ccc32)CC1` [Example 33, 4-(5-chloro-1H-indazol-1-yl)-N-cyclopentylpiperidine-1-carboxamide]: 430%.
